Measured values reported in patent publication US20240425457A1, “COMPOSITIONS AND METHODS FOR SUPPRESSING AND/OR TREATING METABOLIC DISEASES AND/OR A CLINICAL CONDITION THEREOF” (CK Biotech Inc., priority 2018, published 2024).
“Also recorded” adds a separate entry of the source. Where two headings read alike, the source gives them in different places.

Key:
[1] = molecular target: T1, CXXC5-DVL interaction (Homo sapiens, UniProt O14640); assay: in vitro CXXC5-DVL PPI inhibition screening assay (FITC-tagged PTD-DBMP on DVL-PDZ, fluorescence); format: binding; conditions: for inhibition at 30 µM: read-out: CXXC5-DVL inhibitory activity (%)
T1 sequence (O14640 251-323 limits assumed): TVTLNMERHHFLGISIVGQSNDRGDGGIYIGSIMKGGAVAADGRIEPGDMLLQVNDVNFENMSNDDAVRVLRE
Description: Screening for compounds that inhibit the CXXC5-DVL interaction. […] CELL. DEATH. DIFFER. […] After the addition of 10 μM FITC-tagged PTD-DBMP to each well, each compound in the chemical library or control (DMSO) was treated to the well at a final concentration of 30 μM. The fluorescence intensity was measured using a Fluorstar Optima microplate reader (BGM Lab Technologie, Ortenberg, Germany) and normalized as follows: “(‘compounds-treated group’−‘blank’)/(‘DMSO-treated control’−‘blank’)*100”.

[2] = tested on: HFD-fed mice; assay: HFD-induced obesity/diabetes mice, 5-day oral courses at weeks 8/9 and 12; format: in vivo; conditions: HFD mice; for levels of GTT/ITT, total cholesterol, fasting glucose, triglyceride, FFAs in serum: A3334 25, metformin 100, sitagliptin 50 mpk (FIG. 38B-38F); for persistence of fasting glucose control after end of treatment / fasting glucose level: p.o. daily 5 days at weeks 8/9 and 12; for persistence of fasting glucose control after end of treatment: A3334 25, sitagliptin 50, metformin 100 mg/kg; for fasting glucose level: A3334, A3051, I3O 25, sitagliptin 50, metformin 100 mg/kg
Text: Animals. The generation of Cxxc5^−/− mice has been described previously. Cxxc5 heterozygous mice were intercrossed for four generations to obtain littermate wild-type and Cxxc5^−/− mice and were maintained on a C57BL/6 background. Six-week-old Cxxc5^+/+ and Cxxc5^−/− mice were fed HFD for 8 weeks. Wild-type male C57BL/6 mice (KOATECH, Seoul, Korea) were fed HFD consisting of 60% calories from fat (Research Diet, D12492) for 8 weeks. To validate that the insulin resistance mouse model was successfully established, fasting glucose levels were assessed with a One Touch Ultra glucometer (LifeScan). Subsequently, each HFD-fed mouse with a fasting glucose level higher than 16.7 mmol/L was orally administered A3334 (25 mg kg^−1), sitagliptin (50 mg kg^−1), or metformin (100 mg kg^−1) each day for 5 days at weeks 8 and 12. After the removal of the drugs, mice were maintained for 3 weeks on the HFD. To monitor pancreas regeneration, six-week-old Cxxc5^+/+ and Cxxc5^−/− mice were fed an HFD as above. After dietary treatment for 4 weeks, the mice were intraperitoneally injected with STZ (50 mg/kg/d) for 1 week and the control group were injected with saline. After 2 weeks, Cxxc5^+/+ mice were administered A3334 (25 mg kg^−1) and sitagliptin (50 mg kg^−1) per day by oral gavage for 4 weeks. For GTT or ITT, mice were injected with D-glucose (1.5 g/kg body weight) after overnight starvation or human insulin (0.75 units/kg body weight) after 4 h starvation, respectively. Tail blood was drawn at 0, 15, 30, 60, 120, 180 min intervals and blood glucose level was measured with a One Touch Ultra glucometer. All mice were maintained under temperature-controlled and light-controlled (standard 12 h light/dark cycle) conditions and provided with food and water ad libitum. All protocols were reviewed and approved by the Institutional Review Board of Severance Hospital, Yonsei University College of Medicine (09-013).
Blood chemistry. Total blood of mice was collected by cardiac puncture after fasting. The blood was allowed to clot for 30 min and was then centrifuged for 10 min at 1,000×g to obtain supernatant to measure metabolic parameters. ELISA assay kits were used to assess serum insulin (Millipore), serum FFA (Cayman Chemical), serum adiponectin (ABclonal). The insulin function test was evaluated by HOMA-IR and was calculated as fasting plasma glucose (m mol/l)×fasting serum insulin (mU/l)/22.5. Serum chemistry variables included total cholesterol, HDL-cholesterol, glucose, TG, ALT, AST, ALP, Ca, and Mg concentration. The calibration of serum parameters was performed using the quality control card supplied with the FUJI DRI-CHEM slides whenever slides from a new lot were used. […]
Hematoxylin and eosin (H&E) staining. Dissected tissues were fixed in 4% neutral paraformaldehyde and embedded in paraffin. The paraffin sections were cut at a thickness of 4 μm and subjected to H&E staining. The adipocyte cell size was measured in 20 randomly chosen microscopic areas from 3 independent animals using a Nikon bright-field optical microscope (Nikon TE-2000U). The average adipocyte size was determined using Image J software. […]
Metabolic monitoring and body composition. Metabolic performance (energy intake and energy expenditure) was studied using a PHENOMASTER automated combined indirect calorimetry system (TSE system GmBH). The mice were first acclimated for 24 h in a metabolic chamber and were provided with food and water. They were then subsequently evaluated for 3 days to measure oxygen consumption (VO2), carbon dioxide production (VCO2), ambulatory counts, and respiratory exchange ratio. An LF50 body composition analyzer (Bruker) was used to determine body composition (lean body mass and total body fat) of the mice. The temperature for these studies remained at 22° C., with a 12 h light/dark cycle. Standard in-house software was used for energy expenditure.
Quantitative real-time polymerase chain reaction (PCR). […]

[3] = tested on: MCD-induced NASH mice; assay: MCD diet-induced NASH mice; format: in vivo; conditions: MCD diet 7 weeks, then 25 mg/kg daily oral gavage 3 weeks
Description: NASH study. Eight-week-old wild-type male C57BL/6N mice (KOATECH, Seoul, Korea) were fed on the methionine-choline deficient (MCD) diet for 7 weeks, followed by treatment with vehicle, A3334, A3051, or I3O of (25 mg kg^−1) sitagliptin (25 mg kg^−1) for another 3 weeks via daily oral gavage.
Collagen staining. 4 µm-liver tissues sections were stained using two common collagen staining methods. For Masson's trichrome staining, slides were fixed in Bouin's solution for 1 h. After incubation in Weigert's iron hematoxylin solution for 10 min, the slides were stained with Biebrich Scarlet-Acid Fuchsin and Aniline blue for 5 min. The collagen fibers were stained blue and the nuclei were stained black. For picrosirius red staining, sections were stained with Weigert's solution for 8 min and picrosirius red for 1 h. The collagen fibers were stained red with blue nuclei.

[4] = tested on: Wnt/β-catenin signaling; assay: Wnt/β-catenin signaling (TOPFlash) reporter luciferase assay in HEK293-TOP cells; format: cell-based
Description: Luciferase reporter assay. HEK293-TOP cells were seeded in 24-well plates. Cells were treated with A3334 at a concentration of 1, 5, and 10 μM for 24 h. Total cell lysates were extracted with 35 μl of 5× Reporter Lysis Buffer per well according to the manufacturer's instructions (Promega). A total of 35 μl of luciferin was added and luciferase activity was measured using a Fluorstar Optima microplate reader.
Wnt/β-catenin signaling reporter luciferase assay. HEK293-TOP cells were seeded were seeded in 96-well plates at a density of 2.5×10^4 cells per well. Cells were treated with individual chemicals at a concentration of 1, 5, 10 µM for 24 h. Total cell lysates were extracted with 25 µl of 5× Reporter Lysis Buffer per well according to the manufacturer's instruction (Promega, Madison, WI). Luciferin (25 µl) was added and luciferase activity was measured using FLUOSTAR (BMG labtech, Offenburg, Germany).

[5] = molecular target: T1, CXXC5-DVL interaction; assay: Dvl-CXXC5 in vitro binding assay, (PTD-DBMP)-(PZD-DVL), concentration dependent; conditions: FIG. 33A-33C; unit inferred; read-out: IC50, in vitro (PTD-DBMP)-(PZD-DVL) binding analyses
[6] = tested on: HFD-induced obese mice; assay: HFD-induced obese mice, oral administration during 16 weeks of HFD; format: in vivo; conditions: HFD 16 weeks, 25 mpk oral
Description: Anti-obesity effects of […], a small molecule […] inhibitor. Referring now to FIG. 34, C57BL/6N mice were fed HFD for 16 weeks with or without oral administration of 25 mpk […] or Orlistat. Orlistat is an anti-obesity drug that is thought to act by limiting the absorption of fats from the diet (e.g., a lipase inhibitor). […] Referring now to FIG. 35, The C57BL/6N mice were grown with HFD for 16 weeks with or without oral administration of 25 mpk of […], […], and I3O. […] The increase in adipocyte cell sizes and enhancement of inflammation (evaluated by crown like structures; blue; FIG. 35B) were suppressed by treatment with […] in the HFD mice.

O=C(OCCN1CCOCC1)C1(c2ccccc2)CCCCC1 [Compound 18]
inhibition at 30 µM ([1]; 30 μM): 86.8%

O=c1cc(O)cc(/C=C/c2ccc(O)c(O)c2)o1 [Compound 11]
inhibition at 30 µM ([1]; 30 μM): 90%

O=c1c(O)c(-c2cc(O)c(O)c(O)c2)oc2cc(O)cc(O)c12 [Compound 13]
inhibition at 30 µM ([1]; 30 μM): 85.2%

Cc1cc(C)c2c(O)nc(SCC(=O)c3ccc(O)c(O)c3)nc2n1 [Compound 3]
inhibition at 30 µM ([1]; 30 μM): 88.2%

CN1CCc2cc(O)cc3c2[C@H]1Cc1ccc(O)c(O)c1-3 [Compound 9]
inhibition at 30 µM ([1]; 30 μM): 89.4%

O=C(O)C1Sc2[nH]c(=O)sc2C2c3cc(Br)cc(Br)c3OC(=O)C12 (stereo not shown) [Compound 5]
inhibition at 30 µM ([1]; 30 μM): 90.5%

CN(C)C(=N)N=C(N)N [metformin, reference compound]
serum ALT, AST, FFA (and TG) [2]: increased by metformin
levels of GTT/ITT, total cholesterol, fasting glucose, triglyceride, FFAs in serum [2]: weaker than those of A3333
persistence of fasting glucose control after end of treatment [2]: this prolonged effect was not shown; also recorded: showed an increased fasting glucose level after their second application
fasting glucose level [2]: reduced similarly by treatment with all of these compounds at initial applications

COc1ccc(C2CC(=O)C3=C(C2)Nc2onc(C)c2C3c2ccc(O)c(O)c2)cc1OC (stereo not shown) [Compound 7]
inhibition at 30 µM ([1]; 30 μM): 90.9%

COc1ccc(C)cc1/N=N/c1ccc(O)c2nc(/C=N/O)ccc12 [Compound 1]
inhibition at 30 µM ([1]; 30 μM): 85.2%

COC(=O)C1=C(C)N/C(=C/c2cc(C)n(-c3ccccc3F)c2C)C1=O [Compound 4]
inhibition at 30 µM ([1]; 30 μM): 87.6%

COc1ccc(C2CC(C(F)(F)F)n3ncc(C(=O)O)c3N2)cc1OC (stereo not shown) [Compound 2]
inhibition at 30 µM ([1]; 30 μM): 90.6%

CC(N)(Cc1ccc(O)c(O)c1)C(=O)O (stereo not shown) [Compound 14]
inhibition at 30 µM ([1]; 30 μM): 85.2%

CCN(CC)S(=O)(=O)c1ccc(OC)c(Nc2cc(-c3ccccc3)nc(C)n2)c1 [Compound 6]
inhibition at 30 µM ([1]; 30 μM): 58.2%

N[C@@H](CC(=O)N1CCn2c(nnc2C(F)(F)F)C1)Cc1cc(F)c(F)cc1F [sitagliptin, reference compound]
mRNA of M1 and M2 macrophage marker genes in epiWAT [2]: did not significantly change the expression of inflammation or the Wnt/β-catenin signaling target genes
serum ALT, AST, FFA (and TG) [2]: weakly reduced by SITA even at a higher concentration
levels of GTT/ITT, total cholesterol, fasting glucose, triglyceride, FFAs in serum [2]: weaker than those of A3333
hepatic steatosis (lipid droplets, fatty liver, hepatic TG) ([2]; H&E, Oil Red O): exhibited only a marginal effect
Wnt/β-catenin target genes and lipogenesis/inflammation genes in white adipose tissue ([2]; mRNA): did not significantly change the expression of inflammation or the Wnt/β-catenin signaling target genes
lipogenesis and gluconeogenesis genes in liver ([2]; mRNA): reduced by both A3334 and SITA, but A3334 showed better effectiveness
persistence of fasting glucose control after end of treatment [2]: this prolonged effect was not shown; also recorded: showed an increased fasting glucose level after their second application
fasting glucose level [2]: reduced similarly by treatment with all of these compounds at initial applications
hepatosteatosis (H&E) [3]: also reduced hepatosteatosis, but revealed only marginal effects compared to A3334

O=C1Nc2ccccc2/C1=C1/Nc2ccccc2/C1=N\O [Compound I3O, Indirubin-3′-oxime, reference compound]
Wnt/β-catenin (TOPFlash) reporter activity [4]: showed effectiveness in the activation of Wnt/β-catenin pathway
IC50 [5]: 98.9 nM
inhibition of CXXC5-DVL interaction (in words) [1]: identified as initial hits
inhibition at 30 µM ([1]; 30 μM): 89%
inhibition of CXXC5-DVL interaction (in words) ([1]; listed as #12): repeatedly identified as CXXC5-DVL inhibitors
adipocyte cell size and inflammation (crown like structures) [6]: showed reduction in adipocyte size and anti-inflammatory effects, but those effects were lower when compared to that of the A3334 treatment
fasting glucose level [2]: also reduced fasting glucose. However, effects of A3051 and I3O is similar to or little bit weaker than SITA
hepatosteatosis (H&E) [3]: also reduced hepatosteatosis, but revealed only marginal effects compared to A3334

CN(C)c1ccc(O)c2c1C[C@H]1C[C@H]3[C@H](N(C)C)C(O)=C(C(N)=O)C(=O)[C@@]3(O)C(O)=C1C2=O [Compound 16]
inhibition at 30 µM [1]: 87.9%

O=c1c(O)c(-c2ccc(O)cc2O)oc2cc(O)cc(O)c12 [Compound 15]
inhibition at 30 µM ([1]; 30 μM): 85.4%

NC(Cc1cc(O)c(O)cc1O)C(=O)O (stereo not shown) [Compound 10]
inhibition at 30 µM [1]: 90.3%

Oc1cc(O)cc(/C=C/c2ccc(O)c(O)c2)c1 [Compound 17]
inhibition at 30 µM ([1]; 30 μM): 85.2%
